Measured values published in patent US20260159826A1, “METHOD OF MODIFYING CELLS” (ROYAL MELBOURNE INSTITUTE OF TECHNOLOGY, priority 2022, published 2026).

Tests used:
HUVEC monolayers [1] = experiment: VE-cadherin remodelling, CAB formation, linearity index and AJ length in SRBW mechanostimulated cells with pathway inhibitors; assay type: cell-based, human; settings: for Linearity index / AJ length (adhesion site length) / CAB formation: SRBW 8 mins at 1.5 W, GGTI-298 15 μM, NSC23766 10 μM; for Linearity index / AJ length (adhesion site length): 30 mins post exposure; for Linearity index: FIG. 6(b); for AJ length (adhesion site length): FIG. 6(c)
HUVEC monolayers [2] = experiment: Intracellular cAMP (cyclic AMP XP assay) in SRBW mechanostimulated cells with Ca2+ inhibitors and chelators; assay type: cell-based, human; settings: for cAMP release: SRBW pretreatment in the presence of extracellular calcium, then sequential treatment, FIG. 2(e-iv), 2(e-v); for cAMP levels under SRBW mechanostimulation: pretreatment with BAPTA-AM and TPEN together, FIG. 2(e-ii)
Protocol: (§1) Endothelial cells were cultured in Endothelial Cell Growth Medium-2 (EGM™2) BulletKit™ in a humidified incubator maintained at 37° C. and 5% CO2. The cells were grown in a standard T25 flask until they reached 80-90% confluency, following which they were detached using 0.05% trypsin-EDTA, reseeded in the culture plates at a density of 5000 cells/cm2 and incubated until they reached 90-95% confluency. The confluent monolayer is then exposed to the SRBW irradiation at the prescribed input power and duration. The cells were immediately processed for analysis upon removal of the acoustic field at various post-exposure incubation timepoints.
cAMP concentrations were measured through a cyclic AMP XP™ assay. Briefly, the EC monolayers were washed in Tyrode's buffer (137mMsodium chloride, 12mMsodium bi-carbonate, 5.5 mM glucose, 2 mM potassium chloride, 1mMmagnesium chloride and 0.3 mM disodium hydrogen phosphate) at pH 7.4 supplemented with […] IBMX—a phosphodiesterase inhibitor, to prevent the hydrolysis of cAMP. The cells were then exposed to the SRBW followed by incubation at different time points, after which the cells were lysed in 100 μl of lysis buffer that was supplied with the kit. 25 μl of the cell lysate and HRP-linked cAMP solution was subsequently transferred into the cAMP assay microtiter plates provided and incubated for 3 hrs at room temperature. Following incubation, the plate was washed four times and the liquid discarded. 100 μl of the supplied 3,3′,5,5″-tetramethylbenzidine (TMB) was then added and the solution incubated in the dark for 15 mins. The reaction was ceased by adding 100 μl of the provided STOP solution and its absorbance measured at 450 nm using a spectrophotometric plate reader (CLARIOstar, BMG LabTech, Mornington, VIC, Australia). The average of three measurements per treatment group was taken for cells from each individual culture, from which the cAMP concentrations can be calculated using a standard curve.

THP-1 cells = experiment: Wash assay (adherence assay) of SRBW stimulated monocytes pretreated with inhibitors/chelators; assay type: cell-based; settings: SRBW Treatment 4, 36 hours post exposure, BAPTA-AM 20 μM, Thapsigargin 300 nM, TPEN 1 mM, GGTI-298 15 μM, HJC0197 25 μM, FIG. 18, 19
Protocol: Cell culture and Mechanostimulation: THP-1 cells were obtained from CellBank (Children Medical Research institute, NSW) and grown in suspension in RPMI+Glutamax supplemented with 10% (v/v) heat-inactivated FBS with 1% penicillin-streptomycin in a humidified 37° C., 5% CO2 incubator. Low passage (passage 15 or less) cells were seeded at cell density ranging from 0.5×10^5-0.5×10^6 per cm^2. The cells were then stimulated with SRBW at a frequency of 10 Mhz and at the indicated input power and duration. The cells were stimulated and processed at different post-exposure incubation times (24 h, 36 h, 48 h, 72 h, Day 5, Day 7, Day 9).
Wash Assay: Control (untreated) and treated cells were initially characterised by wash-assay or adherence assay. Undifferentiated THP1 cells were non-adherent cells. Accordingly, cells were initially characterised by determining the percentage of adherent cells. The spent media from control and treated wells were carefully collected into labelled centrifuge tubes. The wells were washed three times with media. After each wash, the wash media was collected into corresponding centrifuge tubes. The tubes were then centrifuged at 250×g for 5 minutes. The supernatant was carefully removed, and the pellet was homogeneously mixed with 1×PBS. The cells collected from spent and wash media were counted trypan blue exclusion assay using a hemocytometer. The percentage of adherent cells was calculated by (number of cells from control wells—number of cells from treated wells/number of cells from control wells)×100. The viability was also determined using the same. The change in the cellular morphology was also recorded using Nikon.

endothelial cells = experiment: Stress fibre (SF) formation after SRBW exposure under ROCK inhibition; assay type: cell-based, human; settings: initial sonochallenge phase, early times (<0.3 hrs) after SRBW; data not shown
HUVEC monolayers [3] = assay type: cell-based, human; settings: SRBW 8 mins at 1.5 W; in the presence of piezo channel inhibitor; FIG. 4(b)
Protocol: as §1
Free cytosolic calcium levels were determined using the fluorescent calcium indicator Fura-2AM. In brief, the EC monolayers were incubated in […] Fura-2AM in Opti-MEM™ reduced serum medium supplemented with 2% (vol/vol) heat-inactivated FBS at 37° C. in the dark. […] The fluorescence emission intensity at 510 nm in individual wells at excitation wavelengths of 340 and 380 nm were measured using a spectrophotometric plate reader (CLARIOstar® BMG LabTech, Mornington, VIC, Australia). The ratio of Fura-2 AM fluorescence emission in response to 340 nm and 380 nm excitation (340/380) was calculated and expressed in terms of the fold change with respect to that of the respective control (unexcited) cells. […]

For CCN(CC)CCCC(C)Nc1nc(C)cc(Nc2ccc3nc(C)cc(N)c3c2)n1.Cl.Cl.Cl (racemic) [NSC23766, N6-[2-(4-diethylamino-1-methyl-butylamino)-6-methyl-pyrimidin-4-yl]-2-methyl-quinoline-4,6-diamine trihydrochloride], the Linearity index (HUVEC monolayers [1]) was “departure from linearity”, the “AJ length (adhesion site length)” value (HUVEC monolayers [1]) was “increased adhesion site length” and the CAB formation (HUVEC monolayers [1]; data not shown) was “only limited CAB formation”.

CC(=O)OCOC(=O)CN(CC(=O)OCOC(C)=O)c1ccccc1OCCOc1ccccc1N(CC(=O)OCOC(C)=O)CC(=O)OCOC(C)=O [BAPTA-AM, 1,2-bis(2-aminophenoxy)ethane-N,N,N′,N′-tetraacetic acid tetrakis(acetoxymethyl ester)] was tested, and the cAMP release (HUVEC monolayers [2]) was “not suppressed”, the “cAMP levels under SRBW mechanostimulation” value (HUVEC monolayers [2]) was “increased under the SRBW mechanostimulation only when extracellular calcium is present” and the “number of adherent cells” value (THP-1 cells) was “reduced significantly”.

For COC(=O)[C@H](CC(C)C)NC(=O)c1ccc(NC[C@@H](N)CS)cc1-c1cccc2ccccc12.O.O=C(O)C(F)(F)F [GGTI-298, N-[[4-(2-(R)-amino-3-mercaptopropyl)amino]-2-naphthylbenzoyl]leucine methyl ester trifluoroacetate salt hydrate], the “number of adherent cells” value (THP-1 cells) was “significantly reduced”, the Linearity index (HUVEC monolayers [1]) was “departure from linearity” and the “AJ length (adhesion site length)” value (HUVEC monolayers [1]) was “increased adhesion site length”. For the same molecule, the CAB formation (HUVEC monolayers [1]; data not shown) was “only limited CAB formation”.

For Cc1ccc(C)c(CSc2nc(C3CCCC3)c(C#N)c(=O)[nH]2)c1 [HJC0197, 4-cyclopentyl-2-[[(2,5-dimethylphenyl)methyl]thio]-1,6-dihydro-6-oxo-5-pyrimidinecarbonitrile], the “number of adherent cells” value (THP-1 cells) was “significantly reduced”.

In the case of CCCCCCOC(=O)[C@]1(O)C[C@H]2O[C@]1(C)n1c3ccccc3c3c4c(c5c6ccccc6n2c5c31)C(=O)NC4 [KT5720, (9S,10S,12R)-2,3,9,10,11,12-hexahydro-10-hydroxy-9-methyl-1-oxo-9,12-epoxy-1H-diindolo[1,2,3-fg:3′,2′,1′-kl]pyrrolo[3,4-i][1,6]benzodiazocine-10-carboxylic acid hexyl ester], the “VE-cadherin remodelling and CAB formation” value (HUVEC monolayers [1]; treated prior to SRBW mechanostimulation, data not shown) is reported as “quelled”.

c1ccc(CN(CCN(Cc2ccccn2)Cc2ccccn2)Cc2ccccn2)nc1 [TPEN, N,N,N′,N′-tetrakis(2-pyridinylmethyl)-1,2-ethanediamine] was tested, and the cAMP release (HUVEC monolayers [2]) was “affected”, the “cAMP levels under SRBW mechanostimulation” value (HUVEC monolayers [2]) was “increased under the SRBW mechanostimulation only when extracellular calcium is present” and the “number of adherent cells” value (THP-1 cells) was “failed to transform to adherent cells”.

With C[C@@H](N)[C@H]1CC[C@H](C(=O)Nc2ccncc2)CC1.Cl.Cl [Y27632, (R)-(+)-trans-4-(1-aminoethyl)-N-(4-pyridyl)cyclohexanecarboxamide dihydrochloride] the “stress fibre (SF) formation” value (endothelial cells) was “SF attenuation”.

With C[C@H](CCC(=O)O)C[C@H](C)C[C@H](C)C(=O)/C=C(\O)[C@H](C)C[C@H](C)C/C=C/[C@@H](C)[C@@H](O)[C@@H](C)[C@@H](O)C[C@@H]1CC[C@@](C)([C@H]2CC[C@@](C)([C@@H](C)O)O2)O1 [ionomycin] the cAMP release (HUVEC monolayers [2]) was “affected” and the cAMP levels (HUVEC monolayers [2]; SRBW pretreatment, then chelation/inhibition, then ionomycin added, FIG. 2(e-iii), 40-50 mins) was “cAMP levels were observed to rise”.

With N.N.N.N.N.N.N.N.N.N.N.N.N.N.[Cl-].[Cl-].[Cl-].[Cl-].[Cl-].[Cl-].[O-2].[O-2].[Ru+3].[Ru+3].[Ru+4] [ruthenium red] the “intracellular calcium under the high frequency excitation” value (HUVEC monolayers [3]) was “abatement of intracellular calcium”.
